Measured values: patent US4002660A, “S-(4-Chlorophenyl)-3-aryl-3-hydroxypropanethioates” (Morton-Norwich Products, Inc., priority 1976, dated 1977)
Values after ≈ are worked out from the molar mass of the structure shown.

What was measured:
Test in all cases: antibacterial potency, serial dilution technique (MIC)
Format in all cases: cell-based
S. aureus = details: Staphylococcus aureus, read-out: Minimum Inhibitory Concentration
He. Vaginalis = details: Gardnerella vaginalis, read-out: Minimum Inhibitory Concentration
St. agalactiae = details: Streptococcus agalactiae, read-out: Minimum Inhibitory Concentration
P. multocida = details: Pasteurella multocida, read-out: Minimum Inhibitory Concentration
Co. liquefaciens = details: read-out: Minimum Inhibitory Concentration

Structure (SMILES) | MIC (S. aureus) | MIC (He. Vaginalis) | MIC (St. agalactiae) | MIC (P. multocida) | MIC (Co. liquefaciens)
O=C(CC(O)c1ccccc1)Sc1ccc(Cl)cc1 (stereo not drawn) [I, S-(4-Chlorophenyl)-3-Hydroxy-3-phenylpropanethioate] | 6.25 µg/mL (≈ 21.3 µM) | 12.5 µg/mL (≈ 42.7 µM) | 3.13 µg/mL (≈ 10.7 µM) | 6.25 µg/mL (≈ 21.3 µM) | 6.25 µg/mL (≈ 21.3 µM)
Cc1ccc(C(O)CC(=O)Sc2ccc(Cl)cc2)cc1 (stereo not drawn) [II, S-(4-Chlorophenyl) 3-Hydroxy-3-(4-methylphenyl)propanethioate] | 12.5 µg/mL (≈ 40.7 µM) | 3.1 µg/mL (≈ 10.1 µM) | 3.13 µg/mL (≈ 10.2 µM) | 3.13 µg/mL (≈ 10.2 µM) | 12.5 µg/mL (≈ 40.7 µM)
CCc1ccc(C(O)CC(=O)Sc2ccc(Cl)cc2)cc1 (stereo not drawn) [III, S-(4-Chlorophenyl) 3-(4-Ethylphenyl)-3-hydroxypropanethioate] | 6.25 µg/mL (≈ 19.5 µM) | 6.25 µg/mL (≈ 19.5 µM) | 3.13 µg/mL (≈ 9.76 µM) | 6.25 µg/mL (≈ 19.5 µM) | 6.25 µg/mL (≈ 19.5 µM)
O=C(CC(O)c1ccc(Cl)cc1)Sc1ccc(Cl)cc1 (stereo not drawn) [IV, S-(4-Chlorophenyl) 3-(4-Chlorophenyl)-3-hydroxypropanethioate] | 12.5 µg/mL (≈ 38.2 µM) | 3.1 µg/mL (≈ 9.47 µM) | 6.25 µg/mL (≈ 19.1 µM) | 6.25 µg/mL (≈ 19.1 µM) | 6.25 µg/mL (≈ 19.1 µM)
O=C(CC(O)c1ccc(Cl)cc1Cl)Sc1ccc(Cl)cc1 (stereo not drawn) [V, S-(4-Chlorophenyl) 3-(2,4-Dichlorophenyl)-3-hydroxypropanethioate] | 6.25 µg/mL (≈ 17.3 µM) | 12.5 µg/mL (≈ 34.6 µM) | 12.5 µg/mL (≈ 34.6 µM) | 25 µg/mL (≈ 69.1 µM) | 3.1 µg/mL (≈ 8.57 µM)
O=C(CC(O)c1ccc(Cl)c(Cl)c1)Sc1ccc(Cl)cc1 (stereo not drawn) [VI, S-(4-Chlorophenyl) 3-(3,4-Dichlorophenyl)-3-hydroxypropanethioate] | 25 µg/mL (≈ 69.1 µM) | 25 µg/mL (≈ 69.1 µM) | 12.5 µg/mL (≈ 34.6 µM) | 25 µg/mL (≈ 69.1 µM) | 12.5 µg/mL (≈ 34.6 µM)
Cc1ccc(C(O)CC(=O)Sc2ccc(Cl)cc2)cc1Cl (stereo not drawn) [VII, S-(4-Chlorophenyl) 3-(3-Chloro-4-methylphenyl)-3-hydroxypropanethioate] | 12.5 µg/mL (≈ 36.6 µM) | 25 µg/mL (≈ 73.3 µM) | 12.5 µg/mL (≈ 36.6 µM) | 25 µg/mL (≈ 73.3 µM) | 12.5 µg/mL (≈ 36.6 µM)
